Assay results taken from patent US9073941B2, “Compounds and methods for treating tuberculosis infection” (Academia Sinica, priority 2010, dated 2015).
Converted amounts (≈) assume the structure as drawn. Like-named read-outs stand apart in the source and are kept apart here.

Tests used:
[1] = biological target: Mtb PDH (Lpd+DlaT+AceE) (Mycobacterium tuberculosis (strain ATCC 25618 / H37Rv), UniProt P9WHH9); assay: PDH Inhibition Activity; format: biochemical
[2] = biological target: lipoamide dehydrogenase (Lpd) (Mycobacterium tuberculosis (strain ATCC 25618 / H37Rv), UniProt P9WHH9); assay: Lipoamide Dehydrogenase (Lpd) Inhibition Assay; format: biochemical
[3] = tested on: Mycobacterium tuberculosis strains H37Rv; assay: In Vitro Antitubercular H37Rv MIC Assay (resazurin); format: cell-based; details: 168 h
[4] = concentration required for 50% inhibition of PDH activity, fluorescence ex 360 nm / em 460 nm, read-out: PDH IC50
[5] = concentration required for 50% inhibition of LPD activity, DTNB detection, OD405 nm
[6] = growth of Mycobacterium tuberculosis H37Rv, 7H9 medium, 7 days, tested 8-0.25 μg/mL
[7] = Mycobacterium tuberculosis, H37RV

| SMILES | IC50 [1, 4] [nM] | IC50 [2, 5] [nM] | MIC [3, 6] [µg/mL] | MIC [3, 7] [µg/mL] | IC50 [1] [nM] | IC50 [2] [nM] |
| --- | --- | --- | --- | --- | --- | --- |
| CCOC(=O)/C=C\CBr [(XVI)] | 1650 | 2920 ± 880 | ≤ 0.25 |  |  |  |
| O=C1c2ccccc2C(O)(O)[C@@]1(O)[C@]1(O)C(=O)c2ccccc2C1(O)O [Compound 101] | 1930 |  |  | > 8 |  |  |
| CCOc1ccccc1/C=C1\Cc2ccccc2C1=O [Compound 102] | 1130 |  | > 8 |  |  |  |
| O=C1c2ccccc2-c2nc3nonc3nc21 [Compound 103] | < 40 |  | ≤ 0.25 |  |  |  |
| Nc1c(Br)cc(Br)c2nsnc12 [Compound 202] | 1690 |  |  |  |  |  |
| Nc1c(O)ccc2nsnc12 [Compound 203] | 3670 |  | > 8 |  |  |  |
| C=CCOCc1ccccc1 [Compound 301] | 760 |  | 8 (≈ 54 µM) |  |  |  |
| O=C(OC[C@H]1O[C@H](OC(=O)c2cc(O)c(O)c(OC(=O)c3cc(O)c(O)c(O)c3)c2)[C@H](OC(=O)c2cc(O)c(O)c(OC(=O)c3cc(O)c(O)c(O)c3)c2)[C@@H](OC(=O)c2cc(O)c(O)c(OC(=O)c3cc(O)c(O)c(O)c3)c2)[C@@H]1OC(=O)c1cc(O)c(O)c(OC(=O)c2cc(O)c(O)c(O)c2)c1)c1cc(O)c(O)c(OC(=O)c2cc(O)c(O)c(O)c2)c1 [Compound 302] | 450 |  | > 8 |  |  |  |
| COc1ccc(CCI)cc1 [Compound 303] | < 40 |  | 2 (≈ 7.63 µM) |  |  |  |
| c1ccc2c(c1)ccn1c3ccccc3cc21 [Compound 401] | 140 |  | > 8 |  |  |  |
| COc1ccc(NC(=O)CN(C)S(=O)(=O)c2cc(Br)cnc2N)cc1 [Compound 500] |  |  | > 8 |  |  |  |
| Cc1ccc(CNC(=O)C2CCN(S(=O)(=O)c3cn(C(C)C)cn3)CC2)cc1 [Compound 501] | 3130 | 3050 ± 1050 | > 8 |  |  |  |
| Cn1nc(-c2ccccc2)nc2c(=O)n(C)c(=O)nc1-2 [Compound 601] | < 40 | < 40 |  | > 8 |  |  |
| CCn1nc(-c2ccccc2)nc2c(=O)n(C)c(=O)nc1-2 [Compound 602] |  |  |  | > 8 | < 40 | 230 ± 20 |
| Cn1nc(-c2ccc(Cl)cc2)nc2c(=O)n(C)c(=O)nc1-2 [Compound 603] |  |  | > 8 |  | < 40 | 100 ± 10 |
| Cn1nc(-c2ccc(Cl)c(Cl)c2)nc2c(=O)n(C)c(=O)nc1-2 [Compound 604] |  |  | > 8 |  | < 40 | 140 ± 10 |
| COc1ccc(-c2nc3c(=O)n(C)c(=O)nc-3n(C)n2)cc1 [Compound 605] | < 40 | 70 ± 10 | 8 (≈ 26.7 µM) |  |  |  |
| COc1ccc(-c2nc3c(=O)n(C)c(=O)nc-3n(C)n2)cc1OC [Compound 606] | 1440 | 960 ± 70 | > 8 |  |  |  |
| CCn1nc(-c2ccc(OC)cc2)nc2c(=O)n(C)c(=O)nc1-2 [Compound 607] | < 40 | 60 ± 10 | 8 (≈ 25.5 µM) |  |  |  |

| SMILES | IC50 [1, 4] [nM] | IC50 [2, 5] [nM] | MIC [3, 6] [µg/mL] | MIC [3, 7] [µg/mL] | IC50 [1] [nM] | IC50 [2] [nM] |
| --- | --- | --- | --- | --- | --- | --- |
| CCn1nc(-c2cccnc2)nc2c(=O)n(C)c(=O)nc1-2 [Compound 608] |  |  |  | > 8 | < 40 | 190 ± 30 |
| CCn1nc(/C=C/c2ccccc2)nc2c(=O)n(C)c(=O)nc1-2 [Compound 609] | < 40 | < 40 |  | > 8 |  |  |
| CCn1nc(-c2cccs2)nc2c(=O)n(C)c(=O)nc1-2 [Compound 610] | < 40 | < 40 |  | > 8 |  |  |
| Cc1nc2c(=O)n(C)c(=O)nc-2n(C)n1 [Compound 611] | < 40 | 80 ± 10 |  | 4 (≈ 19.3 µM) |  |  |
| CCn1nc(-c2ccccc2C)nc2c(=O)n(C)c(=O)nc1-2 [Compound 613] | < 40 | < 40 |  |  |  |  |
| Cn1nc(-c2ccc([N+](=O)[O-])cc2)nc2c(=O)n(C)c(=O)nc1-2 [Compound 614] | < 40 | < 40 |  |  |  |  |
| CCn1nc(-c2ccccc2Cl)nc2c(=O)n(C)c(=O)nc1-2 [Compound 615] | < 40 | < 40 |  |  |  |  |
| Cn1nc(-c2ccc(F)cc2)nc2c(=O)n(C)c(=O)nc1-2 [Compound 616] |  |  |  |  | < 40 | < 40 |
| CCCc1nc2c(=O)n(C)c(=O)nc-2n(C)n1 [Compound 617] | < 40 | < 40 |  |  |  |  |
| Cc1ccc(-c2nc3c(=O)n(C)c(=O)nc-3n(C)n2)cc1 [Compound 618] |  |  |  |  | < 40 | < 40 |
| Cn1nc(-c2ccc(C(F)(F)F)cc2)nc2c(=O)n(C)c(=O)nc1-2 [Compound 619] | < 40 | < 40 |  |  |  |  |
| CCn1nc(-c2ccc([N+](=O)[O-])cc2)nc2c(=O)n(C)c(=O)nc1-2 [Compound 620] | < 40 | < 40 |  |  |  |  |
| CCn1nc(-c2ccc(C(=O)OC)cc2)nc2c(=O)n(C)c(=O)nc1-2 [Compound 621] | < 40 | < 40 |  |  |  |  |
| CN1N=C(c2ccccc2)Nc2c1nc(O)n(C)c2=O [Compound 701] | < 40 |  |  | > 8 |  |  |
| O=C1C=C(NCc2ccccc2)c2ccccc2C1=O [Compound 901] | 4280 | 100 | 8 (≈ 30.4 µM) |  |  |  |
| Nc1ccc2c(c1)C(=O)C(=O)c1ccccc1-2 [Compound 902] | 788 | 670 ± 70 | > 8 |  |  |  |
| CC1(C)C(=O)N=C2c3ccccc3C(=O)C(=O)C21 (centres unmarked) [Compound 903] | 1170 | 860 ± 80 | > 8 |  |  |  |
| O=C1C(=O)c2cc([N+](=O)[O-])ccc2-c2ccccc21 [Compound 904] | 691 | 640 ± 50 | > 8 |  |  |  |
| O=C1C(=O)c2nn(-c3ccccc3)nc2-c2ccccc21 [Compound 905] |  |  | 8 (≈ 29.1 µM) |  | < 40 | < 40 |

| SMILES | IC50 [1, 4] [nM] | IC50 [2, 5] [nM] | MIC [3, 6] [µg/mL] | MIC [3, 7] [µg/mL] | IC50 [1] [nM] | IC50 [2] [nM] |
| --- | --- | --- | --- | --- | --- | --- |
| CC(=O)C(C(C)=O)C1=CC(=O)C(=O)c2ccccc21 [Compound 906] | > 5000 | 2150 ± 430 |  |  |  |  |
| CCCCn1c(NC(=O)c2ccccc2)c(C#N)c2nc3ccccc3nc21 [Compound 1003] | > 5000 | 520 ± 70 |  |  |  |  |
| CCC(C)n1c(NC(=O)c2ccccc2)c(C#N)c2nc3ccccc3nc21 (centres unmarked) [Compound 1004] | > 5000 | 870 ± 100 |  |  |  |  |
| CCCCn1c(NS(=O)(=O)c2ccc(C)cc2)c(C#N)c2nc3ccccc3nc21 [Compound 1005] | > 5000 | 900 ± 130 |  |  |  |  |
| CCCCn1c(NC(=O)c2cccs2)c(C#N)c2nc3ccccc3nc21 [Compound 1006] | > 5000 | 860 ± 160 |  |  |  |  |
| CCCCCn1c(NC(=O)c2ccc(Br)o2)c(C#N)c2nc3ccccc3nc21 [Compound 1007] |  |  |  |  | > 5000 | 1360 ± 160 |
| COCCn1c(NC(=O)c2cccc([N+](=O)[O-])c2)c(C#N)c2nc3ccccc3nc21 [Compound 1008] | > 5000 | 1050 ± 140 |  |  |  |  |
| CCC(C)n1c(NC(=O)c2ccc(Br)o2)c(C#N)c2nc3ccccc3nc21 (centres unmarked) [Compound 1009] | > 5000 | 1650 ± 230 |  |  |  |  |
| N#Cc1c(NC(=O)c2ccc(Cl)c([N+](=O)[O-])c2)n(Cc2ccccc2)c2nc3ccccc3nc12 [Compound 1010] |  |  |  |  | > 5000 | > 4000 |
| CCOC(=O)c1c(NS(=O)(=O)c2ccccc2)n(CCCOC)c2nc3ccccc3nc12 [Compound 1011] | > 5000 | 1310 ± 160 |  |  |  |  |
| COCCCn1c(N)c(C(=O)NCCC(C)C)c2nc3ccccc3nc21 [Compound 1012] | > 5000 | > 4000 |  |  |  |  |
| Cn1c(N)c(C(=O)NCc2ccccc2)c2nc3ccccc3nc21 [Compound 1013] | > 5000 | > 4000 |  |  |  |  |
| CN(C(=O)Cc1cccs1)c1nc2c(s1)CCc1c-2cnn1C [Compound 1103] |  | 2890 ± 460 |  |  |  |  |
| COCCN(C(=O)c1nsc(Cl)c1Cl)c1nc2c(s1)CCc1c-2cnn1C [Compound 1104] |  | 2240 ± 260 |  |  |  |  |
| CN(C(=O)c1ccc(Cn2cccn2)o1)c1nc2c(s1)CCc1c-2cnn1C [Compound 1105] |  | 3640 ± 510 |  |  |  |  |
| CN(C(=O)c1ccc2c(c1)OCCO2)c1nc2c(s1)CCc1c-2cnn1C [Compound 1106] |  |  |  |  |  | 2670 ± 230 |
| COC1CCCC(C(=O)N(CC2CCCO2)c2nc3c(s2)CCc2c-3cnn2C)C1 (centres unmarked) [Compound 1107] |  | 3220 ± 500 |  |  |  |  |
| CCN(C(=O)C1CCCO1)c1nc2c(s1)CCc1c-2cnn1C (centres unmarked) [Compound 1108] |  | 3760 ± 190 |  |  |  |  |
